Like-named read-outs stand apart in the source and are kept apart here.
Assays:
HBV genotype C RNAseH = assay: Oligonucleotide-directed RNAseH cleavage assay, HBV genotype C; type: biochemical, Hepatitis B virus; details: class by concentration giving inhibition (10, 20, 60 μM)
Protocol: (§1) For the oligonucleotide-directed RNAseH cleavage assay (Gong et al., 2001), 6 μl protein extract (typical protein concentration 2.8 mg/ml) was mixed with 0.5 μg internally ^32P-labeled DRF+ RNA (nucleotides 2401-2605 of the duck HBV genome plus 60 nucleotides of flanking sequences from pBluescript) and 3 μg oligonucleotide D2507- or its corresponding negative control D2526+ on ice in 20 μl under the conditions in Table 1. Some reactions in FIG. 5 employed oligonucleotide D2543M-Sal or its D2453+ negative control as indicated. The reactions were incubated at 42° C. for 90 min. and terminated by addition of Laemmli protein loading buffer and boiling. The samples were resolved by 12% SDS-PAGE, the gels were stained with Coomassie blue to monitor protein loading, and labeled RNA was detected by autoradiography. Candidate inhibitors were dissolved in DMSO and added at the indicated concentrations during assembly of the reactions. Control reactions lacking the compounds contained DMSO as a vehicle control. The RNAseH autoradiograms were scanned and quantified with ImageJ. The oligonucleotides were: D2526+([…]; SEQ ID NO:8), D2507-([…]; SEQ ID NO:9), D2453+([…]; SEQ ID NO:10), and D2543M-Sal ([…]; SEQ ID NO:11).
Incremental improvements were developed in extraction of the HBV RNAseH from the bacterial cell pellets since the data were generated for Examples 1 and 2. Key among these was shifting from using a cup sonicator to a probe sonicator and reducing the duration of the sonication period from 3×60 second bursts to 3×20 second bursts. When the […] genotype C clone that had inconsistent activity under the old extraction conditions (FIG. 6C) was isolated under these conditions, it became consistently and robustly active (FIG. 16).

[1] = target: T1, HBV genotype D RNAseH (HRHPL) (Hepatitis B virus genotype D subtype ayw, UniProt P03156, INS679M); assay: Oligonucleotide-directed RNAseH cleavage assay, HBV genotype D; type: biochemical; details: class by concentration giving inhibition (10, 20, 60 μM)
T1 construct: HRHPL contains HBV genotype D (Genbank V01460) polymerase residues 684-845; made in house; host or cells: E. coli BL21 codon+
Protocol: For the oligonucleotide-directed RNAseH cleavage assay (Gong et al., 2001), 6 μl protein extract (typical protein concentration 2.8 mg/ml) was mixed with 0.5 μg internally ^32P-labeled DRF+ RNA (nucleotides 2401-2605 of the duck HBV genome plus 60 nucleotides of flanking sequences from pBluescript) and 3 μg oligonucleotide D2507- or its corresponding negative control D2526+ on ice in 20 μl under the conditions in Table 1. Some reactions in FIG. 5 employed oligonucleotide D2543M-Sal or its D2453+ negative control as indicated. The reactions were incubated at 42° C. for 90 min. and terminated by addition of Laemmli protein loading buffer and boiling. The samples were resolved by 12% SDS-PAGE, the gels were stained with Coomassie blue to monitor protein loading, and labeled RNA was detected by autoradiography. Candidate inhibitors were dissolved in DMSO and added at the indicated concentrations during assembly of the reactions. Control reactions lacking the compounds contained DMSO as a vehicle control. The RNAseH autoradiograms were scanned and quantified with ImageJ.
(§2) Oligonucleotide-directed RNAseH cleavage assays (Gong et al., 2001) were performed as described (Tavis et al., 2013). Briefly, HBV RNAseH extracts were mixed with a 264 nt-long internally ^32P-labeled RNA plus an excess of a complementary DNA oligonucleotide or its inverse-complement as a negative control in a final concentration of 65 mM Tris pH 8.0, 190 mM NaCl, 5 mM MgCl2, 5 mM dTT, 0.05% NP40, and 6% glycerol. βTJ was dissolved in DMSO and added at the indicated concentrations; the final concentration of DMSO in all reactions was 1%. The reactions were incubated at 42° C. for 90 min. and terminated by addition of Laemmli protein electrophoresis buffer. The samples were resolved by SDS-PAGE, labeled RNA was detected by autoradiography, the autoradiograms were scanned, and the RNA cleavage products were quantified with ImageJ (National Institutes of Health). IC50 values were calculated by non-linear regression using GraphPad Prism (GraphPad Software, Inc.).

HIV-1 RNAseH = HIV-1 RNAseH (Human immunodeficiency virus type 1 group M subtype B, UniProt P04585); details: read-out: IC50 against the HIV RNAseH; cited from earlier work
rat hepatocytes = details: cited from earlier work
HBV [2] = assay: HBV genomic replication assays (Table 2); type: cell-based, Hepatitis B virus; details: class by active concentration
Protocol: Huh7 cells were maintained in Dulbecco's modified Eagle's medium with 10% fetal bovine serum at 37° C. in 5% CO2. Cells were seeded into 60 mm dishes and transfected at 70% confluency with 2.6 μg of plasmids using TransIT-LT1 (Mirus, Inc.). Test compounds were added the morning following transfection at 10 or 50 μM, and fresh medium containing the compounds was provided every 1-2 days. Four or five days post-transfection HBV cores were isolated by lysis of the cells in 10 mM Tris pH 7.5, 1 mM EDTA, 0.25% NP40, 50 mM NaCl, and 8% sucrose followed by sedimentation through a 30% sucrose cushion as described (Travis, et al., 1998). Viral DNAs were isolated from cytoplasmic core particle preparations by proteinase K digestion followed by phenol/chloroform extraction as described (Gong et al., 2001). Duplicate aliquots of the nucleic acids were treated with 2 U E. coli DNAse-free RNAseH (Invitrogen) at 37° C. for 30 min. or were mock treated. The nucleic acid samples were resolved by electrophoresis on 1.2% agarose gels and detected by Southern blotting with ^32P-labeled HBV DNA as a probe. […]

human RNAseH1 = target: T2, human RNAseH1 (Homo sapiens, UniProt O60930); assay: Oligonucleotide-directed RNAseH assay, recombinant human RNAseH1; type: biochemical; details: class by concentration giving inhibition (10, 20, 60 μM)
T2 construct: hexahistidine (N); made in house; host or cells: E. coli BL21 codon+
T2 sequence (O60930 1-286): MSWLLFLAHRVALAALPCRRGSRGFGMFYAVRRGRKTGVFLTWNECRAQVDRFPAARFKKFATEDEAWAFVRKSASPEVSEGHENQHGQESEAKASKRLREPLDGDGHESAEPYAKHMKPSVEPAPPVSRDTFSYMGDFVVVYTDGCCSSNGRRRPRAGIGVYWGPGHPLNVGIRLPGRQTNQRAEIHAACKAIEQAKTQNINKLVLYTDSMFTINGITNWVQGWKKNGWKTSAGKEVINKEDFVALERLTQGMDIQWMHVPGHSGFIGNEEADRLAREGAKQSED
Protocol: as §1
Therefore, the inventors cloned the human RNAseH1 with an N-terminal hexahistidine tag, expressed it in E. coli, and purified the protein by nickel affinity chromatography. […] This enzyme was active in the oligonucleotide-directed and fluorescent RNAseH assays (FIG. 10B and data not shown). To determine how inhibition of human RNAseH1 compared to inhibition of the HBV RNAseH, the inventor titrated the RNAaseH1 enzyme to yield similar levels of activity as the HBV enzyme, and then the inventor directly compared the ability of compounds #8-12 to inhibit human RNAseH1 and HRHPL at 10 μM. […] Therefore, it is possible to inhibit the HBV RNAseH without inhibiting human RNAseH1.
as §2

HBV [3] = assay: Quantitative PCR screen of HBV plus-polarity DNA accumulation; type: cell-based, Hepatitis B virus; details: 60, 20, or 6.7 μM; DNA isolated day 3
Protocol: This assay was employed to screen 7 compounds for their ability to suppress HBV replication (FIG. 17). […] Fresh medium containing compound was provided on days 1 and 2, and capsid-associated HBV DNAs were isolated on day 3. HBV plus-strand DNAs were measured using the cross-gap TaqMan PCR assay.
Plus-polarity preferential quantitative TaqMan PCR for the HBV DNA was conducted employing forward primer […] […] PCR was conducted on purified HBV capsid-derived nucleic acids for 40 cycles of 95° C. for 15 sec. and 65° C. for 1 min. employing the TaqMan universal PCR master mix (Applied Biosystems). Results were standardized against serial dilutions of cloned HBV DNA. The EC50 was estimated by linear regression of the real-time PCR data.

[4] = rat hepatocytes, Nakagawa and Tayama, 1998

Molecule	Activity vs. HBV Biochemical vs. gtC (HBV genotype C RNAseH)	Activity vs. HBV Biochemical vs. gtD [1]	Activity vs. human RNAseH1 (human RNAseH1)	also measured
Cc1cc(C)c(C#N)c(=O)[nH]1 [Compound 20]	− (− no inhibition at 60 μM)	− (− no inhibition at 60 μM)		
CC(C)c1ccccc(=O)c1O [α-thuaplicin, reference compound]				IC50 (HIV-1 RNAseH): 50 µM
O=c1cccccc1O [Compound 53, Tropolone]		++ (++ inhibition at 20 μM)	− (− no inhibition at 60 μM)	Mitochondrial toxicity (rat hepatocytes): mitochondrial toxicity has been reported; Activity vs. HBV Genomic Replication (HBV [2]): − (− no activity at 60 μM); Suppression of HBV plus-polarity DNA accumulation (HBV [3]): inhibited accumulation of HBV plus-polarity DNA to lesser extents
CC(C)c1cccc(O)c(=O)c1 [Compound 47, beta-thujaplicin]	− (− no inhibition at 60 μM)	+++ (+++ inhibition at 10 μM)	− (− no inhibition at 60 μM)	Mitochondrial toxicity (rat hepatocytes; [4]): mitochondrial toxicity has been reported; Activity vs. HBV Genomic Replication (HBV [2]): − (− no activity at 60 μM); Suppression of HBV plus-polarity DNA accumulation (HBV [3]): did not suppress HBV plus-polarity DNA accumulation
O=c1ccc2ccccc2n1O [Compound 43]	+ (+ inhibition at 60 μM)	− (− no inhibition at 60 μM)	− (− no inhibition at 60 μM)	
CCn1cc(C(=O)O)c(=O)c2cc(Cc3ccccc3)c(OCCOC)cc21 [Compound 69]	+ (+ inhibition at 60 μM)	++ (++ inhibition at 20 μM)		
CC(C)n1cc(C(=O)O)c(=O)c2ccccc21 [Compound 64]	− (− no inhibition at 60 μM)	+ (+ inhibition at 60 μM)		
CC(C)c1ccc(O)c(=O)cc1 [Compound 48]				Suppression of HBV plus-polarity DNA accumulation (HBV [3]): did not suppress HBV plus-polarity DNA accumulation
O=c1cccccc1 [tropone, reference compound]				Mitochondrial toxicity (rat hepatocytes; [4]): mitochondrial toxicity has been reported
CCn1cc(C(=O)O)c(=O)c2cc(F)c(N3CCNCC3)nc21 [Compound 71, Enoxacin, reference compound]	− (− no inhibition at 60 μM)	− (− no inhibition at 60 μM)		
C[C@@H]1CCO[C@H]2Cn3cc(C(=O)NCc4ccc(F)cc4F)c(=O)c(O)c3C(=O)N12 [Compound 73, Dolutegravir, reference compound]	− (− no inhibition at 60 μM)	+ (+ inhibition at 60 μM)		
Manicol [Compound 56]	+++ (+++ inhibition at 10 μM)	+++ (+++ inhibition at 10 μM)	− (− no inhibition at 60 μM)	IC50 (HIV-1 RNAseH): 60 µM; Activity vs. HBV Genomic Replication (HBV [2]): + (+, activity detectable at >10 μM); Suppression of HBV plus-polarity DNA accumulation (HBV [3]): inhibited accumulation of HBV plus-polarity DNA to lesser extents
O=C1c2cccc3cccc(c23)C(=O)N1O [Compound 45]	+ (+ inhibition at 60 μM)	− (− no inhibition at 60 μM)	− (− no inhibition at 60 μM)	Activity vs. HBV Genomic Replication (HBV [2]): − (− no activity at 60 μM)
Cn1c(N2CCCCS2(=O)=O)nc(C(=O)NCc2ccc(F)cc2)c(O)c1=O [Compound 72, reference compound]	+ (+ inhibition at 60 μM)	++ (++ inhibition at 20 μM)		
